ChEMBL document CHEMBL4196200 (J Med Chem, 2018)

Key:
[1] = target: T1, Oxytocin receptor (Homo sapiens) (UniProt P30559); experiment: Antagonist activity at human OTR receptor expressed in CHO cells assessed as inhibition of OT-induced myo-inositol 1-phosphate accumulation by IP-One assay; format: functional, cell-based
T1 sequence (whole entry): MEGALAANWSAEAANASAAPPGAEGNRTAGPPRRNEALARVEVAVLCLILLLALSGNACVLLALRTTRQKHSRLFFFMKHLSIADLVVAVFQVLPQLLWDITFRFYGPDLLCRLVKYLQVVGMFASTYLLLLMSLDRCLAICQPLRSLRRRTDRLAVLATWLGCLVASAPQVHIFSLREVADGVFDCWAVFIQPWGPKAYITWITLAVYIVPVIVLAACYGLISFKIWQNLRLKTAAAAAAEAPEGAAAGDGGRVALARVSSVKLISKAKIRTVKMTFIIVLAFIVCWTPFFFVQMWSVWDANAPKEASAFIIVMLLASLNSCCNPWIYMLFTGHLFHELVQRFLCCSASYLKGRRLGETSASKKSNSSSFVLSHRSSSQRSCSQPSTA

[2] = target: T1, Oxytocin receptor (Homo sapiens); experiment: Agonist activity at human OTR receptor expressed in CHO cells assessed as increase in myo-inositol 1-phosphate accumulation at 1 uM by IP-One assay relative to OT; format: functional, cell-based
Vasopressin V2 receptor [3] = target: T2, Vasopressin V2 receptor (Homo sapiens, UniProt P30518); experiment: Agonist activity at human V2 receptor expressed in CHO cells assessed as increase in cAMP accumulation by cAMP dynamic 2 assay; format: functional, cell-based
Vasopressin V1a receptor [4] = target: T3, Vasopressin V1a receptor (Homo sapiens, UniProt P37288); experiment: Displacement of [3H]-AVP from human V1A receptor expressed in CHO cell membranes by radioligand binding assay
Target sequence in this assay (P37288 whole entry): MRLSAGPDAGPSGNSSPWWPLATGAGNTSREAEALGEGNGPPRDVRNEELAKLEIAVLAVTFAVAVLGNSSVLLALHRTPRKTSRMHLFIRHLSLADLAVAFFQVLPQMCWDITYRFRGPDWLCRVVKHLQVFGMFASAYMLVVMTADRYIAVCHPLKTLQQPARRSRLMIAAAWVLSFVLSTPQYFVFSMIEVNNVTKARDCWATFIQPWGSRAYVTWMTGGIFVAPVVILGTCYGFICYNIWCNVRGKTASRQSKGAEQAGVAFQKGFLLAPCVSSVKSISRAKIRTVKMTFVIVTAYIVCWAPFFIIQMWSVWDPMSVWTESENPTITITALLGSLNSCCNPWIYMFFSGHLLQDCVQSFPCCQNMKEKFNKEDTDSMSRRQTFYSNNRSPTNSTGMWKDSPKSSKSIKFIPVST

Oxytocin receptor [5] = target: T4, Oxytocin receptor (Homo sapiens, UniProt P30559); experiment: Displacement of [3H]-AVP from human OXR receptor expressed in CHO cell membranes by radioligand binding assay
T4 sequence (P30559 whole entry): T1 sequence (whole entry)

Vasopressin V2 receptor [6] = target: T2, Vasopressin V2 receptor; experiment: Displacement of [3H]-AVP from human V2 receptor expressed in CHO cell membranes by radioligand binding assay
Vasopressin V1a receptor [7] = target: T3, Vasopressin V1a receptor; experiment: Agonist activity at human V1A receptor expressed in CHO cells assessed as increase in myo-inositol 1-phosphate accumulation at 1 uM by IP-One assay relative to AVP; format: functional, cell-based
Target sequence in this assay (P37288 whole entry, looked up): as the sequence (P37288 whole entry) above

Vasopressin V1a receptor [8] = target: T3, Vasopressin V1a receptor; experiment: Antagonist activity at human V1A receptor expressed in CHO cells assessed as inhibition of AVP-induced myo-inositol 1-phosphate accumulation by IP-One assay; format: functional, cell-based
Target sequence in this assay (P37288 whole entry, looked up): as the sequence (P37288 whole entry) above

Homo sapiens [9] = species on record: Homo sapiens; experiment: Selectivity for human V1a receptor over human V2 receptor
[10] = target: T1, Oxytocin receptor (Homo sapiens); experiment: Antagonist activity at human OTR receptor expressed in CHO cells assessed as inhibition of OT-induced myo-inositol 1-phosphate accumulation at 1 uM by IP-One assay relative to OT; format: functional, cell-based
Vasopressin V1a receptor [11] = target: T3, Vasopressin V1a receptor; experiment: Antagonist activity at human V1A receptor expressed in CHO cells assessed as inhibition of AVP-induced myo-inositol 1-phosphate accumulation at 1 uM by IP-One assay relative to AVP; format: functional, cell-based
Target sequence in this assay (P37288 whole entry, looked up): as the sequence (P37288 whole entry) above

Vasopressin V2 receptor [12] = target: T2, Vasopressin V2 receptor; experiment: Antagonist activity at human V2 receptor expressed in CHO cells assessed as inhibition of AVP-induced cAMP accumulation by cAMP dynamic 2 assay; format: functional, cell-based
Homo sapiens [13] = species on record: Homo sapiens; experiment: Selectivity for human OTR receptor over human V2 receptor
Vasopressin V1a receptor [14] = target: T3, Vasopressin V1a receptor; experiment: Displacement of DY647 from SNAP-tagged V1A receptor (unknown origin) expressed in HEK293 cells by TR-FRET assay; format: cell-based
Target sequence in this assay (P37288 whole entry): as above

Oxytocin receptor [15] = target: T4, Oxytocin receptor; experiment: Agonist activity at human OTR expressed in HEK cells assessed as increase in intracellular calcium flux incubated for 45 mins by Indo1-AM dye based fluorescence assay; format: functional, cell-based
[16] = target: T1, Oxytocin receptor (Homo sapiens); experiment: Agonist activity at human OTR expressed in HEK cells assessed as increase in intracellular calcium flux incubated for 45 mins by Indo1-AM dye based fluorescence assay relative to OT; format: functional, cell-based
Vasopressin V1a receptor [17] = target: T3, Vasopressin V1a receptor; experiment: Antagonist activity at human V1A receptor expressed in HEK cells assessed as inhibition of AVP-induced intracellular calcium flux incubated for 45 mins by Indo1-AM dye based fluorescence assay relative to AVP; format: functional, cell-based
Target sequence in this assay (P37288 whole entry): as above

Oxytocin receptor [18] = target: T4, Oxytocin receptor; experiment: Displacement of DY647 from SNAP-tagged OTR receptor (unknown origin) expressed in HEK293 cells by TR-FRET assay; format: cell-based
[19] = target: T1, Oxytocin receptor (Homo sapiens); experiment: Antagonist activity at human OTR expressed in HEK cells assessed as inhibition of OT-induced intracellular calcium flux at 1 uM incubated for 45 mins by Indo1-AM dye based fluorescence assay relative to OT; format: functional, cell-based
Vasopressin V2 receptor [20] = target: T2, Vasopressin V2 receptor; experiment: Displacement of DY647 from SNAP-tagged V2 receptor (unknown origin) expressed in HEK293 cells by TR-FRET assay; format: cell-based
Vasopressin V1a receptor [21] = target: T3, Vasopressin V1a receptor; experiment: Agonist activity at human V1A receptor expressed in HEK cells assessed as increase in intracellular calcium flux at 1 uM incubated for 45 mins by Indo1-AM dye based fluorescence assay relative to AVP; format: functional, cell-based
Target sequence in this assay (P37288 whole entry, looked up): as the sequence (P37288 whole entry) above

T2 sequence (P30518 whole entry): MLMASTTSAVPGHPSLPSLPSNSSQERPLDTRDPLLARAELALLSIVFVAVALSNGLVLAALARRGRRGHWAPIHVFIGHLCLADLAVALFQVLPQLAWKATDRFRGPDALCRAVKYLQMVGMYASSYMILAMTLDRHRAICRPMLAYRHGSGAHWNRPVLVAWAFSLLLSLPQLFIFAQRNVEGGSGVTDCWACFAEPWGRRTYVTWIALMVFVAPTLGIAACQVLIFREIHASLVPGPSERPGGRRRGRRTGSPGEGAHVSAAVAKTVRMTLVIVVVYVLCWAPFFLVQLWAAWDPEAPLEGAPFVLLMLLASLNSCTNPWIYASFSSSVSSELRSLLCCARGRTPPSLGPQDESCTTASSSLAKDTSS

SMILES	Emax [2] [%]	Ki (Vasopressin V1a receptor [4]) [nM]	Ki (Oxytocin receptor [5]) [nM]	Ki (Vasopressin V2 receptor [6]) [nM]	Emax (Vasopressin V1a receptor [7]) [%]	Kinact (Vasopressin V1a receptor [8]) [nM]	inhibition [10] [%]	inhibition (Vasopressin V1a receptor [11]) [%]	also measured
Cc1ccn(-c2ccc(C(=O)N3CCCC(N(C)C)c4ccccc43)cc2)n1 (stereo not given)	–	741	1330	> 1000	< 10	–	21	15	Selectivity ratio (Homo sapiens [9]): < 0.74
C[N+](C)(C)c1ccc(C(=O)N2CCCCc3ccccc32)cc1	< 10	> 1000	< 10	> 1000	< 10	–	19	15	–
O=C(c1ccc(Cl)cc1)N1CCCCc2ccccc21	< 10	556	< 10	507	< 10	149	24.1	–	–
Cc1cc(C(=O)N2Cc3cnn(C)c3Nc3ccccc32)ccc1CNC(=O)N1CCC[C@H]1C(=O)N(C)C	–	–	–	–	–	–	–	–	Ki (Vasopressin V1a receptor [14]): > 1000 nM; EC50 (Oxytocin receptor [15]): 300 nM; Emax [16]: 34%; IC50 (Vasopressin V1a receptor [17]): 95 nM; Ki (Oxytocin receptor [18]): > 1000 nM; inhibition [19]: 5 to 10%; Ki (Vasopressin V2 receptor [20]): > 1000 nM; Emax (Vasopressin V1a receptor [21]): 5 to 10%
O=C(c1ccc(-c2ncccn2)cc1)N1CCCCc2ccccc21	< 10	573	340	334	< 10	177	30.6	–	–
Cc1ccn(-c2ccc(C(=O)N3Cc4cnn(C)c4Nc4ccccc43)c(Cl)c2)n1	–	–	–	–	< 10	–	–	–	Selectivity ratio (Homo sapiens [9]): 0.93; Kact (Vasopressin V2 receptor [3]): 8.4 nM; Selectivity ratio (Homo sapiens [13]): 0.59
CC(=O)Nc1ccc(C(=O)N2CCCCc3ccccc32)cc1	< 10	1080	> 1000	> 1000	< 10	305	32	–	–
Nc1ccc(C(=O)N2CCCCc3ccccc32)cc1	< 10	734	< 10	> 1000	< 10	–	15	37	–
O=C(c1ccc(Br)cc1)N1CCCCc2ccccc21	< 10	504	< 10	713	< 10	218	20	–	–

Further lines, with some results ahead:

Emax [2] [%]	Ki (Vasopressin V1a receptor [4]) [nM]	Ki (Oxytocin receptor [5]) [nM]	Ki (Vasopressin V2 receptor [6]) [nM]	Emax (Vasopressin V1a receptor [7]) [%]	Kinact (Vasopressin V1a receptor [8]) [nM]	inhibition [10] [%]	inhibition (Vasopressin V1a receptor [11]) [%]	SMILES	also measured
< 10	82	> 1000	468	< 10	81	–	–	CN(C)c1ccc(C(=O)N2CCCCc3ccccc32)cc1	Kinact [1]: 186 nM; Kact (Vasopressin V2 receptor [3]): 80 nM
< 10	2.28	10.4	78	< 10	–	–	–	O=C(c1ccc(-c2ccccc2)cc1)N1CCCCc2ccccc21	Kinact [1]: 42 nM; Kinact (Vasopressin V2 receptor [12]): 132 nM
< 10	34	84	282	< 10	48	–	–	Cc1ccn(-c2ccc(C(=O)N3CCCCc4ccccc43)cc2)n1	Kinact [1]: 112 nM; Selectivity ratio (Homo sapiens [9]): 0.12; Kact (Vasopressin V2 receptor [3]): 13 nM; Selectivity ratio (Homo sapiens [13]): 0.3
< 10	63	104	121	< 10	184	–	–	CCCc1ccc(C(=O)N2CCCCc3ccccc32)cc1	Kinact [1]: 172 nM; Kact (Vasopressin V2 receptor [3]): 92 nM
–	< 10	> 1000	331	< 10	–	< 10	< 10	Cc1ccn(-c2ccc(C(=O)N3CCCC(N(C)C)c4ccccc43)c(Cl)c2)n1 (stereo not given)	Selectivity ratio (Homo sapiens [9]): > 30; Selectivity ratio (Homo sapiens [13]): > 3; Kinact (Vasopressin V2 receptor [12]): 126 nM
–	< 10	< 10	< 10	< 10	–	< 10	< 10	Cc1ccn(-c2ccc(C(=O)N3CCCCCC3)c(Cl)c2)n1	–
< 10	67	150	233	< 10	51	–	–	O=C(c1ccc(-c2cccnc2)cc1)N1CCCCc2ccccc21	Kinact [1]: 227 nM; Kinact (Vasopressin V2 receptor [12]): 78 nM
< 10	28	37.4	52	< 10	421	–	–	CCCCc1ccc(C(=O)N2CCCCc3ccccc32)cc1	Kinact [1]: 113 nM; Kact (Vasopressin V2 receptor [3]): 18 nM
–	164	686	1150	< 10	–	45	69	Cc1ccn(-c2ccc(C(=O)N3CCCC(O)c4ccccc43)cc2)n1 (stereo not given)	Selectivity ratio (Homo sapiens [9]): 0.14; Selectivity ratio (Homo sapiens [13]): 0.6
–	< 10	< 10	> 1000	< 10	–	–	19	Cc1ccn(-c2ccc(C(=O)N3CCCC(=O)c4ccccc43)cc2)n1	–
< 10	48	396	160	< 10	15	36	–	O=C(c1ccc(I)cc1)N1CCCCc2ccccc21	–
–	< 10	800	100	< 10	–	28	26	Cc1ccn(-c2ccc(C(=O)N3CCCC(O)c4ccccc43)c(Cl)c2)n1 (stereo not given)	Selectivity ratio (Homo sapiens [9]): > 100; Kact (Vasopressin V2 receptor [3]): 28 nM; Selectivity ratio (Homo sapiens [13]): 8
–	< 10	< 10	< 10	< 10	–	14	< 10	Cc1ccn(-c2ccc(C(=O)N3CCCC(=O)c4ccccc43)c(Cl)c2)n1	–
